Data reported in ChEMBL document CHEMBL1201862, “PubChem BioAssay data set” (2004).
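Method: 48-hour compound exposure of cells in 96-well plates, five concentrations, linear interpolation of endpoints. GI50 is the concentration that inhibits growth by half.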 Calls of active or inactive are those of the source. No stated cut-off is given here; in the data, active = GI50 up to about 1.1 µM and inactive = higher.

Columns and labels:
Test in all cases: NCI anticancer screen, dose series, 48 h
[1] = system: OVCAR-8
[2] = system: Hs-578T
[3] = system: T47D
[4] = system: MDA-MB-435
[5] = system: IGROV-1
[6] = system: UACC-62
[7] = system: HCC 2998
[8] = system: OVCAR-5
[9] = system: SNB-19
[10] = system: SN12C
[11] = system: ACHN
[12] = system: MDA-N
[13] = system: CAKI-1
[14] = system: K562
[15] = system: NCI-H226
[16] = system: M14
[17] = system: COLO 205
[18] = system: MDA-MB-231
[19] = system: SF-539

SMILES | GI50 [1] | GI50 [2] | GI50 [3] | GI50 [4] | GI50 [5] | GI50 [6] | GI50 [7] | GI50 [8] | GI50 [9] | GI50 [10] | GI50 [11] | GI50 [12] | GI50 [13] | GI50 [14] | GI50 [15] | GI50 [16] | GI50 [17] | GI50 [18] | GI50 [19]
CC(=O)Oc1ccc2[nH]c3c(C)c4cccc-4ccc3c2c1 | 2.1 µM (inactive) | 2.64 µM (inactive) | 2.43 µM (inactive) | 2 µM (inactive) | 1.57 µM (inactive) | 1.81 µM (inactive) | 2.18 µM (inactive) | 2.02 µM (inactive) | 2.04 µM (inactive) | 2.47 µM (inactive) | 1.79 µM (inactive) | 2.36 µM (inactive) | 1.86 µM (inactive) | 3.79 µM (inactive) | 1.38 µM (inactive) | 2.17 µM (inactive) | – | – | –
CS(=O)(=O)Nc1ccc(N2Cc3c[nH]c4ccc5nccc2c5c34)cc1 | 13.7 µM (inactive) | 39.1 µM (inactive) | 3.5 µM (inactive) | 15.5 µM (inactive) | 22.2 µM (inactive) | 16.3 µM (inactive) | – | 22.8 µM (inactive) | 13.1 µM (inactive) | 14 µM (inactive) | 28.6 µM (inactive) | 15.7 µM (inactive) | 31.5 µM (inactive) | 11.4 µM (inactive) | 15.4 µM (inactive) | 15.5 µM (inactive) | 11.9 µM (inactive) | 13.6 µM (inactive) | –
Nc1ccc(/N=N\c2ccc(-c3ccc(O)cc3)cc2)c2ccc(S(=O)(=O)O)cc12 | > 100 µM (inactive) | > 100 µM (inactive) | > 100 µM (inactive) | > 100 µM (inactive) | > 100 µM (inactive) | > 100 µM (inactive) | – | > 100 µM (inactive) | > 100 µM (inactive) | > 100 µM (inactive) | > 100 µM (inactive) | – | > 100 µM (inactive) | > 100 µM (inactive) | > 100 µM (inactive) | > 100 µM (inactive) | > 100 µM (inactive) | > 100 µM (inactive) | > 100 µM (inactive)
COc1ccc(CNc2nc(NCc3ccc(OC)cc3)nc(NC(C)C)n2)cc1 | 13.1 µM (inactive) | 13.5 µM (inactive) | 43.6 µM (inactive) | 3.1 µM (inactive) | 7.53 µM (inactive) | 4.28 µM (inactive) | 28.6 µM (inactive) | 20.2 µM (inactive) | 84.1 µM (inactive) | – | 8.02 µM (inactive) | 2.69 µM (inactive) | 20.3 µM (inactive) | 6.98 µM (inactive) | – | 3.61 µM (inactive) | 9.57 µM (inactive) | – | 9.08 µM (inactive)
NC1CC(=O)c2ccccc21 (stereo unspecified) | > 100 µM (inactive) | > 100 µM (inactive) | > 100 µM (inactive) | > 100 µM (inactive) | > 100 µM (inactive) | > 100 µM (inactive) | > 100 µM (inactive) | > 100 µM (inactive) | > 100 µM (inactive) | > 100 µM (inactive) | > 100 µM (inactive) | – | > 100 µM (inactive) | > 100 µM (inactive) | > 100 µM (inactive) | > 100 µM (inactive) | > 100 µM (inactive) | > 100 µM (inactive) | > 100 µM (inactive)
O=C(NC(CS)C(=O)O)c1cccc2c(=O)c3ccccc3[nH]c12 (stereo unspecified) | > 100 µM (inactive) | > 100 µM (inactive) | – | > 100 µM (inactive) | > 100 µM (inactive) | > 100 µM (inactive) | – | > 100 µM (inactive) | > 100 µM (inactive) | > 100 µM (inactive) | > 100 µM (inactive) | > 100 µM (inactive) | – | > 100 µM (inactive) | > 100 µM (inactive) | > 100 µM (inactive) | > 100 µM (inactive) | > 100 µM (inactive) | –
Cc1cccc(Cn2c3c(c4cc(O)ccc42)C(=O)c2ccccc2C3=O)c1 | 5.57 µM (inactive) | 24.4 µM (inactive) | > 100 µM (inactive) | > 80.9 µM (inactive) | 5.13 µM (inactive) | 11.1 µM (inactive) | – | – | 28 µM (inactive) | > 61 µM (inactive) | 13.3 µM (inactive) | 68.4 µM (inactive) | > 26.5 µM (inactive) | > 100 µM (inactive) | 15.7 µM (inactive) | > 100 µM (inactive) | > 78.2 µM (inactive) | 6.35 µM (inactive) | 5.7 µM (inactive)
Cc1cc2ncc3c(=O)n(NS(=O)(=O)c4ccc(N)cc4)ccc3n2n1 | > 100 µM (inactive) | > 100 µM (inactive) | > 100 µM (inactive) | > 100 µM (inactive) | > 100 µM (inactive) | > 100 µM (inactive) | – | > 100 µM (inactive) | > 100 µM (inactive) | > 100 µM (inactive) | > 100 µM (inactive) | > 100 µM (inactive) | > 100 µM (inactive) | – | > 100 µM (inactive) | > 100 µM (inactive) | > 100 µM (inactive) | > 100 µM (inactive) | > 100 µM (inactive)
O=C1C2SC34c5c2c2ccccc2n5CCC3CCCN14 (stereo unspecified) | 83.8 µM (inactive) | 38.1 µM (inactive) | 91.2 µM (inactive) | 89.1 µM (inactive) | 80.7 µM (inactive) | > 100 µM (inactive) | – | > 100 µM (inactive) | 62.4 µM (inactive) | > 100 µM (inactive) | > 100 µM (inactive) | > 100 µM (inactive) | 48.4 µM (inactive) | > 100 µM (inactive) | > 100 µM (inactive) | > 100 µM (inactive) | > 100 µM (inactive) | 39.6 µM (inactive) | > 100 µM (inactive)
Cc1ccnc(NS(=O)(=O)c2ccc(N=[N+]=[N-])cc2)n1 | > 100 µM (inactive) | > 100 µM (inactive) | > 100 µM (inactive) | > 100 µM (inactive) | > 100 µM (inactive) | > 100 µM (inactive) | – | > 100 µM (inactive) | > 100 µM (inactive) | > 100 µM (inactive) | > 100 µM (inactive) | > 100 µM (inactive) | > 100 µM (inactive) | – | > 100 µM (inactive) | > 100 µM (inactive) | > 100 µM (inactive) | – | > 100 µM (inactive)
CC(C)CCn1c(=O)c2c(=O)[nH][nH]c2c2ccccc21 | > 100 µM (inactive) | > 100 µM (inactive) | – | > 100 µM (inactive) | > 100 µM (inactive) | – | > 100 µM (inactive) | > 100 µM (inactive) | > 100 µM (inactive) | > 100 µM (inactive) | > 100 µM (inactive) | > 100 µM (inactive) | – | > 100 µM (inactive) | > 100 µM (inactive) | – | > 100 µM (inactive) | > 100 µM (inactive) | > 100 µM (inactive)
Nc1nc(-c2ccccc2)c(CC(=O)O)s1 | > 100 µM (inactive) | > 100 µM (inactive) | > 100 µM (inactive) | > 100 µM (inactive) | > 100 µM (inactive) | > 100 µM (inactive) | – | > 100 µM (inactive) | > 100 µM (inactive) | > 100 µM (inactive) | > 100 µM (inactive) | > 100 µM (inactive) | > 100 µM (inactive) | > 100 µM (inactive) | > 100 µM (inactive) | > 100 µM (inactive) | > 100 µM (inactive) | > 100 µM (inactive) | > 100 µM (inactive)
CC(C)(Oc1ccc(Cl)cc1)C(=O)N(C(=O)N1CCCCC1)c1ccccc1 | 14.1 µM (inactive) | 16.9 µM (inactive) | 0.891 µM (active) | 16 µM (inactive) | 5.09 µM (inactive) | 13.2 µM (inactive) | – | 12 µM (inactive) | 16.8 µM (inactive) | 17 µM (inactive) | 14.9 µM (inactive) | 24.5 µM (inactive) | 14.4 µM (inactive) | 8.17 µM (inactive) | 17.6 µM (inactive) | 17.5 µM (inactive) | 17.4 µM (inactive) | 10.6 µM (inactive) | 8.34 µM (inactive)
CCc1ccccc1NC(=O)C(C#N)C1=C(Cl)C(=O)c2ccccc2C1=O (stereo unspecified) | 17.9 µM (inactive) | 19.3 µM (inactive) | 19.5 µM (inactive) | 25.6 µM (inactive) | 12.6 µM (inactive) | 16.8 µM (inactive) | – | 18.6 µM (inactive) | 25.4 µM (inactive) | 13.1 µM (inactive) | 15.2 µM (inactive) | – | 20.3 µM (inactive) | 8.04 µM (inactive) | 15.3 µM (inactive) | 6.71 µM (inactive) | 15.7 µM (inactive) | 7.03 µM (inactive) | 18.9 µM (inactive)
C=C(c1ccc2[nH]c(NC(=O)OC)nc2c1)c1cccs1 | 0.299 µM (active) | 0.417 µM (active) | 0.354 µM (active) | 0.0259 µM (active) | 0.371 µM (active) | 0.121 µM (active) | 0.217 µM (active) | 2.1 µM (inactive) | 0.198 µM (active) | 0.839 µM (active) | 0.06 µM (active) | – | < 0.046 µM (active) | < 0.0456 µM (active) | 0.22 µM (active) | 0.247 µM (active) | 0.129 µM (active) | 0.365 µM (active) | 0.0693 µM (active)
CCO[C@H]1C[C@@H](c2ccccc2)[C@]2(C)C[C@H](C(=O)OC)ON2O1 | > 100 µM (inactive) | > 100 µM (inactive) | > 100 µM (inactive) | > 100 µM (inactive) | > 100 µM (inactive) | > 100 µM (inactive) | – | > 100 µM (inactive) | > 100 µM (inactive) | > 100 µM (inactive) | > 100 µM (inactive) | > 100 µM (inactive) | > 100 µM (inactive) | > 100 µM (inactive) | > 100 µM (inactive) | > 100 µM (inactive) | > 100 µM (inactive) | > 100 µM (inactive) | > 100 µM (inactive)
